From patent US11246817B2, “Antimicrobial composition” (Conopco, Inc., priority 2016, dated 2022) come the findings set out here.

The test system of this assay is M. furfur (CBS 1878). Nature of the assay: ΣFIC assay against Malassezia furfur (in-vitro susceptibility testing, alamar blue). The format is cell-based. Particulars: for MIC: Malassezia furfur; for interaction with zinc pyrithione (synergy) in words: binary combination with zinc pyrithione, judged from ΣFIC; for ΣFIC: in combination with zinc pyrithione 0 to 12.5 ppm, climbazole 0 to 500 ppm, selenium sulfide 0 to 100 ppm. On the procedure: A brief description of the method is given below.
Methods: ΣFIC assay against Malassezia furfur
They are then incubated at 32° C. for 48 hrs with shaking. Then, 1 ml of the first broth culture is transferred into 9 ml of fresh PB and incubated at 32° C. for 48 hrs with shaking. The final culture should contain 2 to 6×10^6 cells/ml. This is achieved by diluting using PB to 5*10^5 cell/ml.
The alcoholic compound was serially diluted (2-fold) to prepare in a range of 10-10,000 ppm in growth medium.
Binary combinations of ZPTO and the testing compound were prepared in 96-well plate by mixing 20 μl of zinc pyrithione solution with 20 μl of testing compound. The solution in each well were further mixed with 160 μl of PB and 20 μl of M. furfur. The final cell density in the testing plate is around 5*10^4 cell/ml, and the final concentration of actives in each well of the 96-wel plate were shown below.
The plate was incubated at 32° C. for one day. Then 20 μl of alamar blue (0.01%) was added into each well with a further incubation for one day to observe the color change. Red color indicates microbial growth and the non-changing blue color indicates no growth.
The MIC is defined as the absolute lowest concentration of active that provides complete microbial growth inhibition as indicated by the blue color of alamar blue under the tested condition.
The differing behaviours of inhibitory antimicrobials in isolation and mixtures have been widely explored using the concept of the Fractional Concentration (FC) and Fractional
Inhibitory Concentration (FIC). The parameter can be defined as follows: […]
The interactions between antimicrobials can be additive, synergistic or antagonistic depending on whether the efficacy of the combination is equivalent to, greater than or less than that obtained for the same total concentration of the individual components when tested alone.
These relationships can be expressed mathematically by summing the fractional MIC values for all the components present in the mixture to give the “fractional inhibition index”. There is no consistent approach in the academic or patent literature in defining precise limiting ΣFIC values that differentiate synergy from additivity or antagonism. In this study, we have adopted a liberal approach defining any binary mixture with ΣFIC <0.9 as showing evidence of synergistic behavior.
ΣFIC=FIC (component 1)+FIC (component 2)
ΣFIC=1 corresponds to additive bactericidal activity
ΣFIC>1 corresponds to antagonistic bactericidal activity
ΣFIC<0.9 corresponds to synergistic bactericidal activity
Climbazole was varied over a concentration of 0 to 500 ppm and selenium sulfide over a concentration of 0 to 100 ppm.
For orientation: Alamar Blue is a resazurin reagent that responds to reducing activity.

[1] abbreviates: CBS1878, read-out: Minimum Inhibition Concentration (MIC).

Where two headings read alike, the source gives them in different places.

On to `CC(C)(C)C(=O)C(Oc1ccc(Cl)cc1)n1ccnc1` (stereo not drawn) [climbazole], for which the “interaction with zinc pyrithione (synergy) in words” value is listed as “not synergistic” and the ΣFIC is listed as 2. Besides, the MIC (CBS1878, active alone, lowest concentration giving complete growth inhibition (alamar blue stays blue), 32° C., Pityrosporum Broth, read-out: Minimum Inhibition Concentration (MIC)) was determined as 3.9 µg/mL.

Take `C=CCc1ccc(O)c(-c2ccc(O)c(CC=C)c2)c1` [honokiol]: the MIC under setting [1] worked out at 1000 µg/mL. On the same count and under the same terms, then `C=CCc1ccc(O)c(-c2cc(CC=C)ccc2O)c1` [magnalol], with 500 µg/mL; and `COc1ccc(C(C)=O)c(O)c1` [paeonol], with 500 µg/mL. For the compound `S=[Se]=S` [selenium sulfide], the “interaction with zinc pyrithione (synergy) in words” value is “not synergistic” and the ΣFIC came out at 2. Besides, the “Minimum Inhibition Concentration (MIC)” value (active alone, lowest concentration giving complete growth inhibition (alamar blue stays blue), 32° C., Pityrosporum Broth) is given as 50 ppm.
